Data on one molecule can be found in patent US20140121216A1, “INDOLEAMINE DERIVATIVES FOR THE TREATMENT OF CENTRAL NERVOUS SYSTEM DISEASES” (Adamed Sp. z o.o., priority 2011, published 2014).

The structures appear in SMILES notation.

Experiment [1] deals with T1, 5-HT7 receptor, human recombinant (Homo sapiens, UniProt P34969).
T1 construct: purchased PerkinElmer
Put plainly: Binding assay, 5-HT7 receptor ([3H]LSD). Particulars: read-out: Inhibition constant Ki 5-HT7. On the procedure:
Moreover, ability of the compounds of the invention to block potassium channel hERG was tested.
The specific ligand binding to the receptors is defined as the difference between the total binding and the non-specific binding determined in the presence of an excess of unlabelled ligand.
The inhibition constants (Ki) were calculated using the Cheng Prusoff equation (Ki=IC50/(1+(L/KD)), where L=concentration of radioligand in the assay, and KD=affinity of the radioligand for the receptor). A Scatchard plot is used to determine the Kd. The IC50 values (concentration causing a half-maximal inhibition of control specific binding) and Hill coefficients (nH) were determined by non-linear regression analysis of the competition curves generated with mean replicate values using Hill equation curve fitting (Y=D+[(A−D)/(1+(C/C50)^nH)], where Y=specific binding, D=minimum specific binding, A=maximum specific binding, C=compound concentration, C50=IC50, and nH=slope factor).

Experiment [2] relates to C57BL/6J mice. The experiment in a line: Tail suspension test in C57BL/6J mice. Format: in vivo. As to the method:
Within 24 h prior to testing, animals were habituated to experimental conditions. For this purpose mice in home cages were transferred to the experimental room for 15 min., while maintaining the lighting and the “white noise” characteristic for the experiment.
The testing procedure was performed on male C57BL/6J mice and based on a method of Steru et al. (The tail suspension test: a new method for screening antidepressants in mice, Psychopharmacology 85, 367-370, 1985). An automated device (Kinder Scientific) was used. After 1 h of adaptation in the experimental room with low light, the mice received the test compound intraperitoneally (at least 3 selected doses).
After a specified time after administration of the test compound mice were suspended by the tail with tape to an aluminum hook connected to a strain gauge. Mice were positioned such that the base of their tail was aligned with the bottom of the hook. […] A strain gauge connected to computer software detected any movements by the mouse in order to record the number of times (events) each subject enters into an escape behavior (struggling episodes), the duration of the event, and the average strength of each event during a 6-min test session. The following settings were used in all experiments: threshold 0.20 Newtons, off delay 30 msec.

The test system of experiment [3] is male Wistar rats. The experiment in a line: Conflict test (Vogel test) in rats. The format is in vivo. As to the method:
(§1) Drug-naive male Wistar rats (Charles River, Sulzfeld, Germany) weighing 250-400 g were housed in polycarbonate Makrolon cages (380×200×590 mm) in an environmentally controlled, experimental room (ambient temperature 21-23° C.; relative humidity 50-60%; 12:12 light:dark cycle, lights on at 7:00 a.m.), in groups of 4. Tap water and standard lab chow (Labofeed H, WPIK, Kcynia, Poland) was available ad libitum.
(§2) The animals were delivered to the Animal Research Unit of the Department of Pharmacology, Institute of Psychiatry and Neurology, 2 weeks before the start of experimental procedures. During these 2 weeks all the rats were repeatedly getting used to the presence of the experimenter (handling), and to injections of saline.
On the day before experiments rats were weighted exact to 1 g. Animals were assigned randomly to treatment groups. All the experiments were performed on separate groups of animals, between 9:00 and 15:00. Tested compound was administered intraperitoneally (i.p.) in an injection volume of 2 ml/kg in at least 3 selected doses. Control groups received an appropriate vehiculum. […]
The test was performed by modified method described by Vogel et al. (Psychopharmacologia, 21 (1), 8-12, 1971) using the monitoring system TSE Systems. […] The number of licks and the number of shocks received throughout a 5-min experimental session were recorded automatically.

The subject of experiment [4] is male Wistar rats. Put plainly: Reversal of the dizocilpine (MK-801)-induced PPI deficits in rats. Format: in vivo. As to the method: as §1, §2
On the day before experiments rats were weighted exact to 1 g. Animals were assigned randomly to treatment groups. All the experiments were performed on separate groups of animals, between 9:00 and 15:00. […]
The PPI apparatus consisted of eight acoustic startle chambers (SR-LAB, San Diego Instruments, San Diego, Calif., USA). […] Startle responses, reflecting the motion of animals in the cylinder following the acoustic stimulus, were detected by a piezoelectric transducer mounted below the frame. […]
The average inter-trial interval was 22.5 s (range: 15-30 s). […] Startle responses were measured for 100 ms after the onset of the last trial stimulus. […]

T1 sequence (P34969 whole entry): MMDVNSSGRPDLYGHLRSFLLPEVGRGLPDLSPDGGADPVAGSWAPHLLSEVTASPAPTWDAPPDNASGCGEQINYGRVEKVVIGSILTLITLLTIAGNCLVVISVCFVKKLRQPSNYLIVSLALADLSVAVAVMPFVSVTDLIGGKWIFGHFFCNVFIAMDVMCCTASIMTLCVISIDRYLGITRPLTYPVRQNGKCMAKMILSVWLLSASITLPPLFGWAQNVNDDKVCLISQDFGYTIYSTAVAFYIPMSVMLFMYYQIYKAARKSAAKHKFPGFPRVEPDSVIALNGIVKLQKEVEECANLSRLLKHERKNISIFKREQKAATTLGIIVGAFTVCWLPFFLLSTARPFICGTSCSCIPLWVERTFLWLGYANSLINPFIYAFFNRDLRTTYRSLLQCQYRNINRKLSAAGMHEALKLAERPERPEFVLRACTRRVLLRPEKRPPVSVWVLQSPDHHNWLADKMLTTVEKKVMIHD

Broadly, the Ki is a dissociation constant, usually derived from enzyme kinetics or from competition with a known ligand. For the molecule `O=C1CCc2ccc(OCCCCN3CCN(c4cccc5c4ccn5S(=O)(=O)c4ccccc4)CC3)cc2N1` [Compound 24, 7-(4-(4-(1-(Phenylsulphonyl)-1H-indol-4-yl)piperazin-1-yl)butoxy)-3,4-dihydroquinolin-2(1H)-one], the inhibition constant (Ki) in experiment [1] was 0.067 µM. Further, the “MED (minimum effective dose), tail suspension test” value in experiment [2] (C57BL/6J mice, i.p.) amounted to 1.25 mg/kg. For the same molecule, the “activity in words, tail suspension test” value in experiment [2] (mice) is “active”. The “activity in words, conflict drinking test (Vogel)” value in experiment [3] is on record as “active”. Moreover, in experiment [3] (i.p.), the “MED (minimum effective dose), conflict test (Vogel test)” value is 3 mg/kg. Further, the “activity in words, dizocilpine (MK-801)-induced PPI deficit test” value in experiment [4] is “active”. In addition, in experiment [4] (i.p., 60 min. before the test), the “MED (minimum effective dose), reversal of dizocilpine (MK-801)-induced PPI deficits” value was found to be 10 mg/kg.
